PubChem BioAssay (NCI)
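How tested: cells in 96-well plates exposed to compound for 48 hours at five concentrations. GI50 is the concentration that inhibits growth by half. TGI: total growth inhibition.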

Tests used:
Assay in all cases: NCI-60 cell line screen, 48 h
RXF 393 renal = system: RXF 393 renal
HOP-62 NSCLC = system: HOP-62 NSCLC
SK-MEL-5 melanoma = system: SK-MEL-5 melanoma
SN12C renal = system: SN12C renal
NCI/ADR-RES ovarian = system: NCI/ADR-RES ovarian
EKVX NSCLC = system: EKVX NSCLC
DU-145 prostate = system: DU-145 prostate
PC-3 prostate = system: PC-3 prostate
SW-620 colon = system: SW-620 colon
ACHN renal = system: ACHN renal

| Compound | GI50 (RXF 393 renal) [µM] | TGI (RXF 393 renal) [µM] | GI50 (HOP-62 NSCLC) [µM] | TGI (HOP-62 NSCLC) [µM] | GI50 (SK-MEL-5 melanoma) [µM] | TGI (SK-MEL-5 melanoma) [µM] | GI50 (SN12C renal) [µM] | TGI (SN12C renal) [µM] | GI50 (NCI/ADR-RES ovarian) [µM] | TGI (NCI/ADR-RES ovarian) [µM] | GI50 (EKVX NSCLC) [µM] | TGI (EKVX NSCLC) [µM] | GI50 (DU-145 prostate) [µM] | TGI (DU-145 prostate) [µM] | GI50 (PC-3 prostate) [µM] | TGI (PC-3 prostate) [µM] | GI50 (SW-620 colon) [µM] | TGI (SW-620 colon) [µM] | GI50 (ACHN renal) [µM] | TGI (ACHN renal) [µM] |
| --- | --- | --- | --- | --- | --- | --- | --- | --- | --- | --- | --- | --- | --- | --- | --- | --- | --- | --- | --- | --- |
| COc1ccc(Nc2ncccc2/C=C/C(=O)c2cc(OC)c(OC)c(OC)c2)cc1 | 1.49 | 2.82 | 1.78 | 3.75 | 1.39 | 2.68 | 1.56 | 3.44 | 2.23 | 13.7 | 1.8 | 4.01 | 1.59 | 2.93 | 2.82 | 8.71 | 1.2 | 2.43 | 1.55 | 2.96 |
| Nc1ccc(-c2nc3ccccc3[nH]2)c(O)c1 | 35.4 | > 100 | 60.5 | > 100 | 21.3 | 72.3 | 42.4 | > 100 | 27.8 | 81.1 | 15.1 | > 100 | 38.9 | > 100 | 23.9 | > 100 | 29.1 | > 100 | 24.3 | 82.9 |
| C[N+](C)([O-])CCCNc1c2ccccc2nc2cccc([N+](=O)[O-])c12 |  | 0.349 |  | 3.23 |  | 0.327 |  | 1.43 |  | 75.6 |  | 0.901 |  | 1.49 |  | 1.26 |  |  |  | 3.74 |
| O=C(Nc1ccc(Cl)cc1)c1cc2c(cc1O)[nH]c1ccccc12 | 5.14 | 20.6 | 2.8 | 6.6 | 1.74 | 3.41 | 2.93 | 11.3 | 2.87 | 8.93 | 2.16 | 7.89 | 3.81 | 13.2 | 3.96 | 22.8 | 3.4 | 13.4 | 3.11 | 11.1 |
| c1cc(C[S+]2CCCC2)ccc1C[S+]1CCCC1 |  | > 100 |  | > 100 |  | > 100 |  | > 100 |  | > 100 |  | > 100 |  | > 100 |  | > 100 |  | > 100 |  | > 100 |
| CC(=N\O)/C(C)=N/O.CC(=N\O)/C(C)=N/O.CC(=N\O)/C(C)=N/O.CC(=N\O)/C(C)=N/O.[Cu].[Cu] | 21.5 | 39.3 | 24.7 | 64.8 | 17.8 | 32.2 | 18.8 | 35.2 | 23.9 | 59.2 | 19.4 | 38.2 | 56.8 | > 100 | 16.7 | 30.3 | 21.5 | 45.9 | 18.7 | 32.7 |
| O=CN1N=C(c2ccc(Nc3ccnc4cc(Cl)ccc34)cc2)CC1c1ccccc1 (stereo not given) | 2.2 | 21.6 | 5.26 | 76.5 | 1.38 | 3.77 | 3.8 | > 100 | 2.69 | 59.8 | 4.94 | > 100 | 3.8 | 27.8 | 4.76 | > 100 | 2.73 | 9.43 | 4.21 | 84.4 |
| NC(=O)C(Br)CBr (stereo not given) | 1.27 | 2.7 | 18.4 | 43.5 | 4.08 | 14.3 | 3.93 | 20.6 | 2.93 | > 24.1 | 1.9 | 4.92 | 2.26 | 5.72 | 2.51 | 11.7 | 1.29 | 2.79 | 0.816 | 2.18 |
| COc1cc2c(cc1OCCCOC1=C=C=C(c3ccc4c(c3)c3cc(-c5ccc(OCCCOc6cc7c(cc6OC)C(=O)N6CCC[C@H]6C=N7)cc5)ccc3n4S(=O)(=O)c3ccc(C)cc3)C=C1)N=C[C@@H]1CCCN1C2=O | 1.17 | 2.59 | 1.99 | 8.6 | 4.26 | 11.1 | 2 | 9.98 | > 26.1 | > 50 | 9.35 | 22.9 | 1.13 | 2.73 | 1.27 | > 28.9 | 1.16 | 6.33 | 1.75 | 7.8 |
| O=Nc1c(-c2cccc([N+](=O)[O-])c2)nc2cnccn12 |  | > 100 |  | 90.1 |  | > 100 |  | 59.7 |  | 54.5 |  | > 100 |  | 40.2 |  | 62.6 |  | 35.7 |  | 14.2 |
| COC(=O)Nc1nc2ccc(Oc3ccc(NC(=O)Nc4cccc(Br)c4)cc3)cc2[nH]1 | 1.92 | 11.9 | 1.24 | 8.67 | 0.948 | 11.9 | 4.65 | > 25 | > 6.8 | > 25 | 8.28 | > 25 | 3.15 | > 14.6 | 1.85 | > 12.7 | 1.48 | 17.6 | 5.53 | > 25 |
| CN(C)c1ccc(C(=O)c2ccc(N(C)C)c(N)c2)cc1N | 3.76 | 18.4 | 5.91 | > 100 | 2.7 | 34.2 | 6.08 | > 100 | 1.13 | 12.3 | 8.87 | > 100 | 5.32 | 28.1 | 5.97 | > 100 | 1.14 | > 100 | 14.8 | > 100 |
| CCN(CC)c1ccc(N=C2C=C(C(=O)Nc3ccc(S(C)(=O)=O)cc3)C(=O)c3ccccc32)c(C)c1 | > 100 | > 100 | 91.7 | > 100 | 5.84 | > 100 | > 100 | > 100 | 94 | > 100 | 5.52 | > 100 | > 100 | > 100 | 1.05 | > 100 | > 100 | > 100 | > 100 | > 100 |
| CNc1nc(C)c(-c2nc(Nc3cccc(S(N)(=O)=O)c3)ncc2F)s1 | 0.0176 | 0.0301 | < 0.0201 |  | 0.0296 | 0.639 | 0.0313 | 2.69 | 0.0886 | 9.17 | 0.0747 | 3.78 | 0.0358 | 17.6 | 0.0388 | 1.27 | 0.0283 | 14.7 | 0.0266 | 11.7 |
| C[C@@H]1COCCN1c1nc(-c2cnc(N)cc2C(F)F)nc(N2[C@H](C)COC[C@@H]2C)n1 | 0.0668 | 0.485 | 0.332 | 13.2 | 0.307 | 2.03 | 0.302 | 15.9 | 0.4 | 15.1 | 0.21 | 5.77 | 0.336 | 14.5 | 0.215 | 14.4 | 0.419 | 13 | 0.265 | 11.8 |
| CCON=C1C(C)(C)C(C)(C)C(C)(C)C1(C)C |  | > 100 |  | > 100 |  | > 100 |  | > 100 |  | > 100 |  | > 100 |  | > 100 |  | > 100 |  | > 100 |  | > 100 |
| CCCCCCCCCCCCCCCC(=O)OCC1OC(n2cnc3c(=S)nc(N)[nH]c32)C(OC(=O)CCCCCCCCCCCCCCC)C1OC(=O)CCCCCCCCCCCCCCC (stereo not given) | 8.09 | > 50 | 1.78 | > 35 | > 47 | > 50 | 18.3 | > 50 | 4.46 | > 50 | 6.15 | > 50 | 1.98 | > 50 | 9.96 | > 50 | 11.1 | > 50 | 11.8 | > 50 |
| O=C(Nc1ncc(Cc2ccccc2)s1)c1ccc2c(c1)OCCCO2 | 1.78 | > 100 | 0.73 | > 100 | 0.424 | 1.96 | 2.12 | > 100 | 0.547 | > 100 | 1.05 | > 100 | 2.3 | > 100 | 0.927 | > 100 | 0.444 | > 100 | 0.644 | > 100 |
| CO/C(=N\N=C\c1ccc(Cl)cc1Cl)c1ccncc1 |  | > 10 |  | > 10 |  |  |  | > 10 |  | > 10 |  | > 10 |  | > 10 |  | > 10 |  | > 10 |  | > 10 |
| NC1C2C(CC(=O)O)OCC=C3CN4CCC1(C(=O)C(=O)O)C4CC32 (stereo not given) |  | > 100 |  | > 100 |  | > 100 |  | > 100 |  | > 100 |  | > 100 |  | > 100 |  | > 100 |  | > 100 |  | > 100 |
| CN(C)/C=C/c1nnnn1-c1ccc(Cl)cc1 | 7.55 | 26.8 | 11.4 | 46.9 | 15 | 35.4 | 4.69 | 28.8 | 10.2 | 36.3 | 30.9 | 82.8 | 14.2 | 64.3 | 6.76 | 35.5 | 10.7 | 49.8 | 24.7 | > 100 |
| CCc1ccc(-c2ccc(=O)n(-c3ccc(S(N)(=O)=O)cc3)n2)cc1 | 3.89 | 31.5 | 5.62 | 30.5 | 0.659 | > 27.6 | 9.88 | > 100 | 0.412 | 12.2 | 5.65 | > 100 | 21.3 | > 100 | 1.35 | > 100 | 0.56 | > 100 | > 32.4 | > 100 |
| CN(C)C(=S)NN=C(c1ccccn1)c1ccccn1 | 0.138 | 13.8 | < 0.01 | 0.0273 | 0.0629 | 3.45 | 0.0971 | 33.4 | < 0.0208 | 4.98 | 0.0247 | 23.8 | 0.232 | > 33.7 | < 0.0123 | > 43.8 | < 0.0115 | > 40.2 | < 0.0108 | 10.7 |
| CC1=C(C(=O)Nc2ccc3[nH]ncc3c2)C(c2ccc(F)cc2)NC(=O)N1 (stereo not given) | > 14.6 | > 25 | > 25 | > 25 | > 25 | > 25 | > 25 | > 25 | > 25 | > 25 | > 25 | > 25 | > 25 | > 25 | > 25 | > 25 | > 25 | > 25 | > 25 | > 25 |
| CCN(CC)CCOc1ccc(Nc2ncc3cc(-c4c(Cl)cccc4Cl)c(=O)n(CCOC)c3n2)cc1 | 0.0184 | 0.133 | 0.0715 | 7.05 | 1.51 | 5.94 | 0.0237 | 5.37 | 0.415 | 7.2 | 0.796 | 7.38 | 0.217 | 2.8 | 3.49 | 18.6 | 1.2 | 5.86 | 0.0205 | 5.72 |
| CNC(=O)c1c(NC(=O)c2cccc(C(F)(F)F)c2)sc2c1CCC(=O)C2 | 0.326 | 1.97 | 1.94 | > 48.6 | 0.462 | 1.66 | 0.361 | > 20.7 | 0.349 | 1.72 | 0.593 | > 21.7 | 3.22 | > 100 | 0.139 | 1.19 | 0.254 | 1.75 | 0.323 | 1.34 |
| COc1ccc(C(O)c2cc3c(N)c(C(=O)Nc4cccc(Cl)c4C)sc3nc2C)cc1 (stereo not given) | 0.709 | 1.42 |  |  | 0.874 | 1.58 | 0.815 | 1.61 | 0.915 | 1.84 | 0.886 | 2.16 | 0.929 | 1.85 | 0.768 | 1.63 | 0.831 | 1.65 | 0.877 | 1.63 |
